# Values joined by “and” are separate entries in the source; they are usually repeats but may differ in a detail not shown here. Equal entries are not always repeated. Where two headings read alike, the source gives them in different places. Marks after values point to notes of the source that are not given here.
# How the values were obtained:
# [1] = Urine concentrations, 24-hour continuous intravenous infusion; assay type: in vivo, Sprague-Dawley rats; settings: for Total amount in urine: all intervals; for Total amount in urine / Amount in urine: individual animals
# Procedure: The safety and pharmacokinetics of PPTN (KB-1801) in rats receiving continuous intravenous injections of SBECD-containing solutions were analyzed. Three cohorts of six male and six female rats each were given continuous intravenous infusion of PPTN (KB-1801) at 10 mg/kg/day, 30 mg/kg/day or 100 mg/kg/day in a dosing solution containing PPTN at 0.25 mg/mL, 0.75 mg/mL or 2.5 mg/mL and SBECD at about 3.8%. Dosing volume was 40 mIkg/day.
# [2] = Stability of PPTN/SBECD solution on dilution into saline; assay type: physicochemical; settings: 9 mg/mL PPTN
# Procedure: The stability of PPTN in SBECD-containing solutions was analyzed at various concentrations of PPTN. A solution containing 9 mg/mL PPTN and 12% SBECD, as described above, was diluted into saline as described in Table 13.
# [3] = Solubility of PPTN in various aqueous and organic solvents; assay type: physicochemical; settings: thermodynamic from solid, PPTN HCl salt, room temperature, read-out: Solubility Estimate
# Procedure: The solubility of PPTN in various aqueous and organic solvents was tested. Test media were prepared, and 5 mg/mL solid PPTN (HCl salt) was added at room temperature. If all PPTN dissolved under these conditions, additional PPTN was added to a total of 10 mg/mL. After 24 hours, undissolved material was removed, and the concentration of PPTN in the supernatant was analyzed by HPLC.
# [4] = Stability of PPTN in SBECD-containing solution under various storage conditions (UHPLC-UV); assay type: physicochemical; settings: 9 mg/mL PPTN, 12% SBECD; for [PPTN]: in mg/mL
# Procedure: The stability of PPTN in SBECD-containing solutions was analyzed under various storage conditions. 20-mL glass vials containing 10 mL of a solution containing 9 mg/mL PPTN and 12% SBECD, as described above, were incubated under various conditions as described in Table 10.
# Samples were analyzed by UHPLC-UV as described in Table 11.
# [5] = Plasma pharmacokinetics after single bolus intravenous injection; assay type: in vivo; settings: male rats; single bolus intravenous injection 0.85, 2.9 or 8.5 mg/kg; SBECD solution
# Procedure: The pharmacokinetics of PPTN (KB-1801) in male rats receiving single bolus intravenous injections of SBECD-containing solutions were analyzed. Three cohorts of four rats each were given a single dose of PPTN (KB-1801) at 0.85 mg/kg, 2.9 mg/kg, or 8.5 mg/kg in 1 mL dosing volume.
# [6] = Solubility of PPTN in SBECD-containing saline solutions; assay type: physicochemical; settings: 9 mg/mL PPTN (HCl salt) in 12% SBECD/saline; room temperature for 28 days
# Procedure: Sulfobutylether-β-cyclodextrin (SBECD) was tested for the ability to increase the solubility of PPTN in aqueous media.
# A stock solution containing 12% SBECD was prepared as follows: 9 mL of saline was added to 1.21 g of SBECD in a 10 mL flask, and the mixture was sonicated for 5 minutes. Saline was then added to achieve a final volume of 10 mL. The pH of the final solution was about 7.
# The solubility of PPTN in solutions containing various concentrations of SBECD was analyzed. Excess PPTN was added to saline solutions containing various concentrations of SBECD, insoluble material was removed by filtration, and the PPTN concentration in the filtered solution was analyzed.
# A solution containing 9 mg/mL PPTN was prepared as follows. 4.7 mL of 12% SBECD solution, prepared as described above, was added to a 5 mL flask containing 45 mg PPTN (HCl salt), and the mixture was sonicated with heat for 50 minutes. After sonication, 12% SBECD solution to achieve a final volume of 5 mL. The warm solution appeared clear. The solution was allowed to cool to room temperature and was incubated at room temperature for 28 days.
# [7] = Loss of PPTN due to adherence to surfaces of vessels; assay type: physicochemical; settings: 200 ng/ml PPTN, no solubilizing agent, 24 hours
# Procedure: The loss of PPTN due to adherence to surfaces of vessels was analyzed. PPTN is a hydrophobic compound that may adhere to plastics and other surfaces. To test how much PPTN is lost due to surface adhesion, an aqueous solution containing 200 ng/ml PPTN and less than 0.1% acetonitrile was incubated in the absence of solubilizing agent in various vessels for 24 hours. […]
structure (smiles),measurement,setting,value
"O=C(O)c1cc(-c2ccc(C3CCNCC3)cc2)c2ccc(-c3ccc(C(F)(F)F)cc3)cc2c1 [KB-1801, 4-[4-(piperidin-4-yl)phenyl]-7-[4-(trifluoromethyl)phenyl]-2-naphthoic acid]",Total amount in urine,"[1]; 24-hour IV infusion 10 mg/kg, female rats",6.29 µg and 1.92 µg and 6.27 µg and 24.6 µg and 20.3 µg and 2.33 µg
same,Amount in urine,"[1]; 24-hour IV infusion 10 mg/kg, female rats, interval 0-4 h",0.16 µg and 0.14 µg and 0.81 µg and 4.98 µg and 2.11 µg
same,Amount in urine,"[1]; 24-hour IV infusion 10 mg/kg, female rats, interval 4-9 h",5.74 µg and 1.32 µg and 11.2 µg and 0.05 µg and 0.23 µg
same,Amount in urine,"[1]; 24-hour IV infusion 10 mg/kg, female rats, interval 9-24 h",0.39 µg and 0.46 µg and 5.46 µg and 13.4 µg and 15.3 µg
same,Total amount in urine,"[1]; 24-hour IV infusion 30 mg/kg, female rats",22.6 µg and 2.00 µg and 6.83 µg and 40.2 µg and 30.9 µg and 57.2 µg
same,Amount in urine,"[1]; 24-hour IV infusion 30 mg/kg, female rats, interval 0-4 h",8.76 µg and 2.00 µg and 0.003 µg and 7.08 µg and 0.71 µg
same,Amount in urine,"[1]; 24-hour IV infusion 30 mg/kg, female rats, interval 4-9 h",9.17 µg and 16.2 µg and 22.6 µg and 29.6 µg
same,Amount in urine,"[1]; 24-hour IV infusion 30 mg/kg, female rats, interval 9-24 h",27.6 µg and 4.65 µg and 6.83 µg and 17.0 µg and 7.56 µg
same,Total amount in urine,"[1]; 24-hour IV infusion 30 mg/kg, male rats",61.7 µg and 63.3 µg and 9.64 µg and 18.1 µg and 243.3 µg and 31.4 µg
same,Amount in urine,"[1]; 24-hour IV infusion 30 mg/kg, male rats, interval 0-4 h",0.01 μg (3×) and 2.03 μg and 0.001 μg and 33.9 μg
same,Amount in urine,"[1]; 24-hour IV infusion 30 mg/kg, male rats, interval 4-9 h",26.0 µg and 43.8 µg and 5.65 µg and 0.003 µg and 11.8 µg and 21.8 µg
same,Amount in urine,"[1]; 24-hour IV infusion 30 mg/kg, male rats, interval 9-24 h",9.64 µg and 35.7 µg and 17.4 µg and 3.98 µg and 18.1 µg and 197.6 µg
same,Total amount in urine,"[1]; 24-hour IV infusion 100 mg/kg, female rats",45.8 µg and 48.8 µg and 64.7 µg and 43.0 µg and 149.9 µg and 171.6 µg
same,Amount in urine,"[1]; 24-hour IV infusion 100 mg/kg, female rats, interval 0-4 h",0.02 µg and 0.01 µg and 9.75 µg and 3.61 µg and 25.6 µg and 10.7 µg
same,Amount in urine,"[1]; 24-hour IV infusion 100 mg/kg, female rats, interval 4-9 h",1.83 µg and 19.3 µg and 5.96 µg and 0.01 µg and 27.4 µg
same,Amount in urine,"[1]; 24-hour IV infusion 100 mg/kg, female rats, interval 9-24 h",133.5 µg and 43.9 µg and 48.8 µg and 35.7 µg and 33.4 µg and 124.3 µg
same,Total amount in urine,"[1]; 24-hour IV infusion 100 mg/kg, male rats",239.6 µg and 82.2 µg and 0.001 µg and 186.8 µg and 228.4 µg and 526.5 µg
same,Amount in urine,"[1]; 24-hour IV infusion 100 mg/kg, male rats, interval 0-4 h",0.12 µg and 40.8 µg and 51.3 µg
same,Amount in urine,"[1]; 24-hour IV infusion 100 mg/kg, male rats, interval 4-9 h",33.6 µg and 26.0 µg and 0.001 µg and 24.1 µg and 32.1 µg and 71.5 µg
same,Amount in urine,"[1]; 24-hour IV infusion 100 mg/kg, male rats, interval 9-24 h",403.7 µg and 206.0 µg and 56.1 µg and 162.6 µg and 155.6 µg
same,"Total amount in urine, individual animal","[1]; male Sprague-Dawley rats, 24-hour intravenous infusion at 10 mg/kg, 0-24 h, 10 mg/kg",45.5 µg and 49.8 µg and 14.8 µg and 67.4 µg and 19.0 µg and 3.25 µg
same,"Amount in urine, individual animal","[1]; male Sprague-Dawley rats, 24-hour intravenous infusion at 10 mg/kg, time interval 0-4 h, 10 mg/kg",5.36 µg and 2.11 µg and 2.02 µg and 11.1 µg and 0.03 µg
same,"Amount in urine, individual animal","[1]; male Sprague-Dawley rats, 24-hour intravenous infusion at 10 mg/kg, time interval 4-9 h, 10 mg/kg",4.47 µg and 0.35 µg and 6.15 µg and 0.52 µg
same,"Amount in urine, individual animal","[1]; male Sprague-Dawley rats, 24-hour intravenous infusion at 10 mg/kg, time interval 9-24 h, 10 mg/kg",3.23 µg and 35.7 µg and 47.3 µg and 6.64 µg and 56.3 µg and 18.5 µg
same,Urine concentration compared with plasma,"[1]; rats, continuous intravenous infusion for 24 or 72 hours",generally in excess of plasma concentrations
same,Result (appearance after dilution),[2]; 12% SBECD stock diluted 3x with saline,Clear solution
same,Result (appearance after dilution),[2]; 12% SBECD stock diluted 10x with saline,Clear solution
same,Result (appearance after dilution),[2]; 12% SBECD stock diluted 50x with saline,Clear solution
same,solubility at 24 h,"[3]; organic solvent or mixture, DMAc, pH 1-2",> 100 mg/mL
same,solubility at 24 h,"[3]; organic solvent or mixture, NMP, pH 1-2",> 100 mg/mL
same,solubility at 24 h,"[3]; organic solvent or mixture, PEG 400, pH ~2",~25 mg/mL
same,solubility at 24 h,"[3]; organic solvent or mixture, ethanol, pH ~2",25 to 30 mg/mL
same,solubility at 24 h,"[3]; organic solvent or mixture, propylene glycol, pH ~2",40 to 50 mg/mL
same,solubility at 24 h,"[3]; water with 1% DMAc, water w/ 1% DMAc, pH 2-3, 24 hours",0.1 to 0.5 mg/mL
same,[PPTN],"[4]; 2-5° C., 1d",8.74
same,[PPTN],"[4]; 2-5° C., 7d",8.69
same,[PPTN],"[4]; 2-5° C., 14d",8.98
same,[PPTN],"[4]; 2-5° C., 28d",8.65
same,[PPTN],"[4]; 25° C., 0d",8.72
same,[PPTN],"[4]; 25° C., 1d",8.75
same,[PPTN],"[4]; 25° C., 7d",8.82
same,[PPTN],"[4]; 25° C., 14d",8.69
same,[PPTN],"[4]; 25° C., 28d",8.71
same,[PPTN],"[4]; 40° C., 1d",8.71
same,[PPTN],"[4]; 40° C., 7d",8.71
same,[PPTN],"[4]; 40° C., 14d",9.25**
same,[PPTN],"[4]; 40° C., 28d",8.73
same,Degradants in UHPLC-UV trace,"[4]; 40° C., 28 days",No degradants were evident
same,[PPTN],"[4]; 50° C., 1d",8.78
same,[PPTN],"[4]; −20° C., 1d (freeze/thaw)",9.0*
same,"PK parameters, relation to dose",[5],linearly dose-related
same,"Pharmacokinetics of plasma PPTN, model",[5],well-described by a 2-compartment model
same,Solution appearance,[6],remained clear throughout the entire incubation
same,% recovery vs. control,[7]; Corning pipette tip,22%
same,% recovery vs. standard,[7]; Corning pipette tip,6%
same,% recovery vs. control,[7]; Eppendorf clear conical tube,19%
same,% recovery vs. standard,[7]; Eppendorf clear conical tube,5%
same,% recovery vs. control,[7]; Eppendorf orange conical tube,25%
same,% recovery vs. standard,[7]; Eppendorf orange conical tube,6%
same,% recovery vs. control,[7]; Versilon SE200 Tygon tubing,8%
same,% recovery vs. standard,[7]; Versilon SE200 Tygon tubing,2%
same,% recovery vs. control,[7]; polyetheretherketone tubing,22%
same,% recovery vs. standard,[7]; polyetheretherketone tubing,6%
